Earlier results, collected in patent US7258850B2, “Methods and compositions for treating erectile dysfunction” (Aradigm Corporation, priority 1999, dated 2007).
Counter-ions that a name gives are not always drawn. Like-named read-outs stand apart in the source and are kept apart here. No end group written: not given here.

Columns and labels:
[1] = test system: dopamine D1 and D2 receptor; conditions: rats, apomorphine in combination with sildenafil
human corpus carvernosum = conditions: human tissue
[2] = test system: rabbit corpus carvernosum; conditions: rabbit tissue
sGC = target: T1, sGC (Rattus norvegicus, UniProt P19686+P20595); conditions: administered intracavernously, rats
T1 construct: host or cells: in vivo, rat corpus cavernosum
T1 sequence (P20595 1-619): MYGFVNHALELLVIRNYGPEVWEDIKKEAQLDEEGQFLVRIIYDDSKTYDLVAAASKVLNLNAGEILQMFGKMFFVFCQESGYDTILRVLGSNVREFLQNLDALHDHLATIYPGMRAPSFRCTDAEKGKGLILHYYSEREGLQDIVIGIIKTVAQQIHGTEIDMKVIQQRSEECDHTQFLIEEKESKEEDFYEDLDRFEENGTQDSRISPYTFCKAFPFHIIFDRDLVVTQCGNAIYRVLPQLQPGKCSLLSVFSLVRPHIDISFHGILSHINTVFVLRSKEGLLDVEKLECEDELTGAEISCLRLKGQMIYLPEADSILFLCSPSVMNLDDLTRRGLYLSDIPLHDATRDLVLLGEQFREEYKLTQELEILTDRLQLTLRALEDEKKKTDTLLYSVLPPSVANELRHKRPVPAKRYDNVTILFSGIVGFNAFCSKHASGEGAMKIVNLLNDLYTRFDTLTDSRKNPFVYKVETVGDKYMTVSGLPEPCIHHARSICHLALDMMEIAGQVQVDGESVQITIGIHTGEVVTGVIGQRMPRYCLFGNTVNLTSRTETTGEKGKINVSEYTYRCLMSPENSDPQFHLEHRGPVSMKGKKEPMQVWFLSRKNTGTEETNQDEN
T1 sequence (P19686 1-690): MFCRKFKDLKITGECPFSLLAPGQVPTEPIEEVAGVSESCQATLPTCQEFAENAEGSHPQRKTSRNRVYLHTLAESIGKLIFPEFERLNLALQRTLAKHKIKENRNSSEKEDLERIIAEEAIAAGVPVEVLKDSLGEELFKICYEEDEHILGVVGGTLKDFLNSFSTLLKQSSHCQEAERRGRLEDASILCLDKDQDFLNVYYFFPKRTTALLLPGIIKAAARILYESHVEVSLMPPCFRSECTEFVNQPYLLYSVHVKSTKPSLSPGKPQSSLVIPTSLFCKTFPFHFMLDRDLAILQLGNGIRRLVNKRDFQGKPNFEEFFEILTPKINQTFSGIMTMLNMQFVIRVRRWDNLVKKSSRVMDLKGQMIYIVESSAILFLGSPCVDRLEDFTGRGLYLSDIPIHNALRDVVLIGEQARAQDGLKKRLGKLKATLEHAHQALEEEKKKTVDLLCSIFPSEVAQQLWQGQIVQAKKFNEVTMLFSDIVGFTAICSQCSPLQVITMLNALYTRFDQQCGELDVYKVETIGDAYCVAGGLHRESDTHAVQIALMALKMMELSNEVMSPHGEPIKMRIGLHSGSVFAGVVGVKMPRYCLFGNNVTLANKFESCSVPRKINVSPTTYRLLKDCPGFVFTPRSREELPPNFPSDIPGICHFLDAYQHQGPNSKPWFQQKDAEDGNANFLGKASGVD

smooth muscle = conditions: intracavernous
Rho-kinase = conditions: applied topically, rats

CN1CCc2cccc3c2[C@H]1Cc1ccc(O)c(O)c1-3 [Apomorphine]
duration of erectile response [1]: prolonged in combination with sildenafil | duration of erectile response ([1]; listed as apomorphine): prolonged by sildenafil

Nc1nc(-c2nn(Cc3ccccc3F)c3ncccc23)ncc1C1CC1 [BAY-41-2272]
relaxation of corpus cavernosum relative to YC-1 (human corpus carvernosum): more potently than YC-1 | relaxation of corpus cavernosum relative to YC-1 [2]: more potently than YC-1

CCCc1nn(C)c2c(=O)[nH]c(-c3cc(S(=O)(=O)N4CCN(C)CC4)ccc3OCC)nc12 [sildenifil citrate, Sildenafil citrate]
solubility in water: relatively insoluble in water

OCc1ccc(-c2nn(Cc3ccccc3)c3ccccc23)o1 [YC-1, 3-(5′-hydroxymethyl-2′furyl)-1-benzyl-indazole]
erection (sGC): elicited dose-dependent erection

Vasoactive intestinal peptid: intracavernous drug, potent smooth muscle relaxant (HSDAVFTDNYTRLRKQMAVKKYLNSILN; ends and bridges not checked; UniProt P01282 125-152, looked up)
duration of effect (smooth muscle): up to 2.5 hours

C[C@@H](N)[C@H]1CC[C@H](C(=O)Nc2ccncc2)CC1 [Y-27632]
erection (Rho-kinase): stimulated erection
